In the NIST ThermoML archive (doi:10.1021/je7003148):

Test: cn = amount concentration of the nth substance listed, in mol/dm3
Conditions: 298 K; for surface tension liquid-gas: Ring tensiometer; for kinematic viscosity / speed of sound / mass density: 101.33 kPa, Liquid; for kinematic viscosity: Capillary tube (Ostwald / Ubbelohde) method; for speed of sound: Sing-around technique in a fixed-path interferometer

CCCCCCCCCCCCCCCCCC[N+](C)(C)C.[Br-] [N,N,N-trimethyl-1-octadecanaminium bromide] + O
Conditions	kinematic viscosity [m2/s]	mass density [kg/m3]	speed of sound [m/s]	surface tension liquid-gas [mN/m]
c1 = 0.001	8.957e-07	997.053	1497.2	62.3
c1 = 0.002	8.958e-07	997.053	1497.7	54.2
c1 = 0.003	8.958e-07	997.053	1498	48.7
c1 = 0.004	8.958e-07	997.053	1498.2	45
c1 = 0.005	8.959e-07	997.053	1498	42.8
c1 = 0.006	8.959e-07	997.054	1497.8	42
c1 = 0.008	8.96e-07	997.054	1497.2	41.4
c1 = 0.01	8.96e-07	997.054	1496.7	41.3
c1 = 0.013	8.961e-07	997.054	1496	41
c1 = 0.016	8.962e-07	997.054	1495.2	40.8
c1 = 0.02	8.963e-07	997.055	1494.2	40.4
c1 = 0.025	8.965e-07	997.055	1492.7	40.2
c1 = 0.03	8.966e-07	997.056	1491.6	39.6
c1 = 0.04	8.969e-07	997.057	1489.2	39.3

O [water] + CCCCCCCCCCCCCC[N+](C)(C)C.[Br-]
c2 = 0
Conditions	kinematic viscosity [m2/s]	surface tension liquid-gas [mN/m]
–	8.957e-07	72.5

CCCCCCCCCCCCCC[N+](C)(C)C.[Br-] [tetradecyltrimethylammonium bromide] + O
Conditions	kinematic viscosity [m2/s]	mass density [kg/m3]	speed of sound [m/s]	surface tension liquid-gas [mN/m]
c1 = 0.001	8.962e-07	997.062	1496.9	60.4
c1 = 0.002	8.968e-07	997.064	1497.2	51.7
c1 = 0.003	8.991e-07	997.087	1497.3	44
c1 = 0.005	9.015e-07	997.106	1497.4	40.6
c1 = 0.01	9.078e-07	997.153	1497.5	38
c1 = 0.015	9.144e-07	997.204	1497.6	37.8
c1 = 0.02	9.215e-07	997.268	1497.7	37.6
c1 = 0.025	9.29e-07	997.307	1497.8	37.4
c1 = 0.03	9.368e-07	997.349	1497.8	37.1
c1 = 0.035	9.45e-07	997.402	1497.9	37
c1 = 0.04	9.537e-07	997.458	1497.9	36.9
c1 = 0.045	9.627e-07	997.5	1498	36.8
c1 = 0.05	9.722e-07	997.545	1498.1	36.7
c1 = 0.055	9.82e-07	997.604	1498.1	36.7

O [water] + CCCCCCCCCCCCCCCCCC[N+](C)(C)C.[Br-]
c2 = 0
Conditions	kinematic viscosity [m2/s]	surface tension liquid-gas [mN/m]
–	8.957e-07	72.5
